Test results reported in patent US20060234942A1, “Use of at least one $g(a)62 casein peptide with angiotensin i converting enzyme inhibiting activity for preparing medicines, food products and food complements” (priority 2002, published 2006).
Where “and” joins values, the source holds several entries; their conditions need not be identical. Equal values may be shown once. Residues, ends and D or L forms follow the SMILES beside them.

Legend:
[1] = target: angiotensin I converting enzyme (ACE) (Homo sapiens, UniProt P12821); assay: biochemical; details: for inhibition at 50 µM: primary amine or captopril concentration equal to 50 μM, chromatographic peaks collected from trypsic hydrolysate of αS2 casein, tested twice; for IC50: IC50 (μM), synthetic peptides, tested in triplicate, deduced from linearized inhibition curve
Chain of angiotensin I converting enzyme (ACE) (P12821 30-1306, species assumed): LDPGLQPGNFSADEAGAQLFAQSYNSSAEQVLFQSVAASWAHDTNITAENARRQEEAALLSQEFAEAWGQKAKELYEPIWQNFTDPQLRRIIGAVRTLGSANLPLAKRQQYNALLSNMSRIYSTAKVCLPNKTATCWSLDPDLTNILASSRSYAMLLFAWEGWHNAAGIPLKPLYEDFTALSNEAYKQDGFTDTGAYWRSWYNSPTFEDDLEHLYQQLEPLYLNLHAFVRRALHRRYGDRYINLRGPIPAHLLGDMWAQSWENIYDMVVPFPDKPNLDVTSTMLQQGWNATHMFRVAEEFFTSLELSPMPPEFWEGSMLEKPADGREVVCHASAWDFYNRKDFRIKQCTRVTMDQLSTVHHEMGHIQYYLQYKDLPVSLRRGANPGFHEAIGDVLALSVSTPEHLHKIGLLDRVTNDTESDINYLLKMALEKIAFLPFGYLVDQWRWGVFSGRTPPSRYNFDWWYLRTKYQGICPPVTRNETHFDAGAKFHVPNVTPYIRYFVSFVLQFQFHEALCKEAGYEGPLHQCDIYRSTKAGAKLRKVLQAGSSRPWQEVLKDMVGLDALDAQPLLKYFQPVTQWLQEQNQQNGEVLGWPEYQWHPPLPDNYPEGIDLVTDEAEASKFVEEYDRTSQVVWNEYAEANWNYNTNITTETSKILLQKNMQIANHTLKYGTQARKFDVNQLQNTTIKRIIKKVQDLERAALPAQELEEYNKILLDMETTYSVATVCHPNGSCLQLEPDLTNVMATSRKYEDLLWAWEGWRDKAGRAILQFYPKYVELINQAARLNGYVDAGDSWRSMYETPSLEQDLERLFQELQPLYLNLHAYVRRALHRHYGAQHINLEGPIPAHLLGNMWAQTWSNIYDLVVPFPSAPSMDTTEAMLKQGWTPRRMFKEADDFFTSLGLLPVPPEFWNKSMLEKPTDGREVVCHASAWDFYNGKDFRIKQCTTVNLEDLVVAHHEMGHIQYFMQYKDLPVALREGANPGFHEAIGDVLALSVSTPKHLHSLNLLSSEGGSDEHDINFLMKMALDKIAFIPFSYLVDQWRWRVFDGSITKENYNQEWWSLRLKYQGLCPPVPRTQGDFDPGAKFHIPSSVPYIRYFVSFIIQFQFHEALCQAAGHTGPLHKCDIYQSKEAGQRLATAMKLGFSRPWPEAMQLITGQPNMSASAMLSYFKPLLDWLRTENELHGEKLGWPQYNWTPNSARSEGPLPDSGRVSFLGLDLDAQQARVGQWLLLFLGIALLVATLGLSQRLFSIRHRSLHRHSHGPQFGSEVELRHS

[2] = system: spontaneously hypertensive rats; details: 6 hours after oral administration of 1 mg synthesized peptide per kg, Maeno et al. (13); cited from earlier work
[3] = target: angiotensin I converting enzyme (Homo sapiens, UniProt P12821); details: Maeno et al. (13); read-out: IC50, quantity of peptide needed for inhibiting 50% of the enzyme activity; cited from earlier work
Chain of angiotensin I converting enzyme (P12821 30-1306): as the sequence (P12821 30-1306, species assumed) above

bacteria = details: Zucht et al. (10); Recio and Visser (11); cited from earlier work

Compound: CC[C@H](C)[C@H](NC(=O)[C@H](CCC(=O)O)NC(=O)[C@H](CC(N)=O)NC(=O)[C@H](CC(C)C)NC(=O)[C@H](C)N)C(=O)N[C@@H](CC(N)=O)C(=O)N[C@@H](CCC(N)=O)C(=O)N[C@@H](Cc1ccccc1)C(=O)N[C@@H](Cc1ccc(O)cc1)C(=O)O [CNαS2-(f81-89)] (H-ALNEINQFY-OH; N-terminus and C-terminus assumed)
- inhibition at 50 µM [1]: 32.2%

Compound: CC(C)[C@H](NC(=O)[C@@H](N)[C@@H](C)O)C(=O)N[C@@H](Cc1ccc(O)cc1)C(=O)O [CNαS2-(f182-184), Thr-Val-Tyr] (H-Thr-Val-Tyr-OH; N-terminus and C-terminus assumed)
- IC50 [1]: < 60 µM
- inhibition at 50 µM [1]: > 70%

Compound: CNαS2-(f198-202): αS2 casein peptide 198-202, ACE inhibitor reported by Maeno et al. (13) (TKVIP; UniProt P02663 213-217, looked up, fragment)
- antihypertensive effect in vivo [2]: do not present any significant antihypertensive effect
- IC50 [3]: 400 µM

Compound: CNαS2-(f190-197): αS2 casein peptide 190-197, ACE inhibitor reported by Maeno et al. (13) (MKPWIQPK; UniProt P02663 205-212, looked up, fragment)
- antihypertensive effect in vivo [2]: do not present any significant antihypertensive effect
- IC50 [3]: 300 µM

Compound: CNαS2-(f165-203): αS2 casein peptide with antibacterial activity, Zucht et al. (10) (KKISQRYQKFALPQYLKTVYQHQKAMKPWIQPKTKVIPY; UniProt P02663 180-218, looked up, fragment)
- antibacterial activity (bacteria): antibacterial activity

Compound: CNαS2-(f189-193): αS2 casein peptide 189-193, ACE inhibitor reported by Maeno et al. (13) (AMKPW; UniProt P02663 204-208, looked up, fragment)
- antihypertensive effect in vivo [2]: do not present any significant antihypertensive effect
- IC50 [3]: 580 µM

Compound: CC(C)C[C@H](NC(=O)[C@H](C)NC(=O)[C@@H](N)Cc1ccccc1)C(=O)N1CCC[C@H]1C(=O)N[C@@H](CCC(N)=O)C(=O)N[C@@H](Cc1ccc(O)cc1)C(=O)O [CNαS2-(f174-179), Phe-Ala-Leu-Pro-Gln-Tyr] (H-FALPQY-OH; N-terminus and C-terminus assumed)
- IC50 [1]: < 60 µM and 4.3 µM
- inhibition at 50 µM [1]: > 70%

Compound: CC[C@H](C)[C@H](NC(=O)[C@H](C)NC(=O)[C@H](CCSC)NC(=O)[C@@H](N)CC(N)=O)C(=O)N[C@@H](CC(N)=O)C(=O)N1CCC[C@H]1C(=O)O [CNαS2-(f25-30), Asn-Met-Ala-Ile-Asn-Pro] (H-NMAINP-OH)
- IC50 [1]: < 60 µM

Compound: CC(C)C[C@H](NC(=O)[C@H](Cc1ccc(O)cc1)NC(=O)[C@H](CCC(N)=O)NC(=O)[C@@H]1CCCN1C(=O)[C@@H](N)Cc1ccccc1)C(=O)N[C@@H](CCC(N)=O)C(=O)N[C@@H](Cc1ccc(O)cc1)C(=O)O [CNαS2-(f92-98), Phe-Pro-Gln-Tyr-Leu-Gln-Tyr] (H-FPQYLQY-OH; N-terminus and C-terminus assumed)
- IC50 [1]: < 60 µM
- inhibition at 50 µM [1]: > 70%

Compound: CNαS2-(f164-179): αS2 casein peptide with antibacterial activity, Recio and Visser (11) (LKKISQRYQKFALPQY; UniProt P02663 179-194, looked up, fragment)
- antibacterial activity (bacteria): antibacterial activity

Compound: CC[C@H](C)[C@H](NC(=O)[C@H](C)NC(=O)[C@H](CCSC)NC(=O)[C@@H](N)CC(N)=O)C(=O)N[C@@H](CC(N)=O)C(=O)N1CCC[C@H]1C(=O)N[C@@H](CO)C(=O)N[C@@H](CCCCN)C(=O)O [CNαS2-(f25-32)] (H-NMAINPSK-OH; N-terminus and C-terminus assumed)
- IC50 [1]: < 60 µM
- inhibition at 50 µM [1]: 42.5%

Compound: CC(C)C[C@H](NC(=O)[C@H](Cc1ccc(O)cc1)NC(=O)[C@H](CCC(N)=O)NC(=O)[C@@H]1CCCN1C(=O)[C@H](CC(C)C)NC(=O)[C@H](C)NC(=O)[C@@H](N)Cc1ccccc1)C(=O)N[C@@H](CCCCN)C(=O)O [CNαS2-(f174-181)] (H-FALPQYLK-OH; N-terminus and C-terminus assumed)
- IC50 [1]: < 60 µM and 4.3 µM
- inhibition at 50 µM [1]: > 70%

Compound: CC[C@H](C)[C@H](NC(=O)[C@H](CCC(=O)O)NC(=O)[C@H](CC(N)=O)NC(=O)[C@H](CC(C)C)NC(=O)[C@H](C)N)C(=O)N[C@@H](CC(N)=O)C(=O)N[C@@H](CCC(N)=O)C(=O)N[C@@H](Cc1ccccc1)C(=O)N[C@@H](Cc1ccc(O)cc1)C(=O)N[C@@H](CCC(N)=O)C(=O)N[C@@H](CCCCN)C(=O)O [CNαS2-(f81-91)] (H-ALNEINQFYQK-OH; N-terminus and C-terminus assumed)
- inhibition at 50 µM [1]: 27.2%

Compound: CC(C)C[C@H](NC(=O)[C@H](C)NC(=O)[C@@H](N)Cc1ccccc1)C(=O)N1CCC[C@H]1C(=O)O [CNαS2-(f174-177), Phe-Ala-Leu-Pro] (H-FALP-OH)
- IC50 [1]: < 60 µM
